Experiment: Solubility in water
Format: physicochemical
Conditions: sugar residue as R5 or/and R6

Q: For `CCN(CC)c1ccc2c(-c3ccccc3C(=O)N(C)CC(O)C(O)C(O)C(O)CO)c3ccc(=[N+](CC)CC)cc-3oc2c1` (stereo not shown) [Compound 51], which solubility in water is on record?
A: high solubility in water
